Source: patent US20260317367A1, “SALTS INCLUDING CRYSTALLINE SALTS OF 25-HYDROXY-CHOLEST-5-EN-3-SULFATE AND METHODS FOR PREPARING SAME” (Durect Corporation, priority 2022, published 2026)
Entries after “also recorded” stand apart in the source; their conditions may differ. Where a name gives a salt, the structure may show the parent alone.

Key:
Format in all cases: physicochemical
[1] = Final pH of the solubility sample solutions in aqueous media; conditions: for pH of the solubility sample, 0.9% Sodium Chloride: 0.9% sodium chloride (blank 5.8); for pH of the solubility sample, 5% Dextrose: 5% dextrose (blank 4.7); for pH of the solubility sample, FaSSGF: FaSSGF (blank 1.5, 1.6); for pH of the solubility sample, FaSSIF: FaSSIF (blank 6.5, 6.5); for pH of the solubility sample, FeSSIF: FeSSIF (blank 4.9, 5.0); for pH of the solubility sample, Water: water (blank 6.3)
Method: 25HC3S salts were weighed in 8 mL or 4 mL glass vials with Teflon coated screw caps. Aliquots of each solvent were added to each sample and vortexed for about one minute until excess solid remained. Samples were placed on shaker at room temperature with 210 motion per minute shaking.
After one day, samples were pulled and checked if excess solid was present. About 1.5 mL aliquot of each sample was centrifuged at 12000 rpm for 12 to 15 minutes. […] Aliquots of the top clear solution of each centrifuged sample in MeOH, EtOH, IPA and ACN were diluted with diluent (water:MeOH 95:5) and assayed by HPLC. Samples of the salts in aqueous media were assayed by HPLC without dilution.
5.1 Solubility of 25HC3S Salts in Aqueous Media

[2] = Angle of repose of 25HC3S salts
Method: Angle of repose is measured as follows. Powder is poured from a funnel onto a flat surface until a cone of powder is created. The angle of repose is calculated according to the following equation: […]
Table C1, from USP<1174> Powder Flow, describes the powder flow properties correlating to the angles of repose.
The lower the angle of repose, the more flowable is a material. Powder with an angle of repose between 25° to 30° will show excellent flow through a hopper, feed frame, die table and die bore smoothly. From 41° to greater than 66°, you may experience powder flow difficulties like rat-holing or bridging within the hopper.
The angle of repose was determined by pouring approximately 2 grams of a 25HC3S salt through a 7 mm inner diameter plastic tube into the center of a 21.14 mm diameter rubber O-ring, resulting in the formation of a powder cone of fixed diameter. The height of the cone was estimated with calipers.

[3] = Appearance (color, clumping, flowability) of stored 25HC3S salts
Method: (§1) Approximately 25 mg of each crystalline 25HC3S salt was added to 20 mL glass vials and each powder weight was recorded. Four vials were prepared for each salt and stored at 2-8° C. or 80° C. according to Table B2. The samples were scheduled initially to pull for testing at 3 weeks and 6 weeks' time points.
(§2) For those […] salts, the remaining vials stored at 2-8° C. for 3 weeks were allocated for storage at 60° C. for 1 week. Additional stability data was generated according to Table B3.
For appearance, each unopened vial was visually examined for color, clumping, and flowability.

[4] = Thermogravimetric analysis (TGA), weight loss
Method: Differential scanning calorimetry (DSC) is a thermoanalytical technique where the difference in the amount of heat required to increase the temperature of a sample and reference is measured as a function of temperature. Using this technique, phase transitions of a sample can be measured such as melting point. Decomposition can also be observed by DSC as can dehydration events. In the context of DSC measurements, there is also variability and the term “about” means ±1° C., and such variability is to be understood whether a DSC measurement is prefaced by “about” or not unless specified otherwise. Exemplary methods for collecting DSC data are set forth in Example 21. Thermogravimetric analysis, sometimes referred to as, thermal gravimetric analysis (TGA) is a thermal method of thermal analysis where the mass of a sample is measured as a function of time as the sample temperature changes. For example, when samples disclosed herein are heated and a loss in mass is measured prior to decomposition, this is likely indicative of the loss of water from the sample and may indicate that the sample being heated is a hydrate. Exemplary methods for collecting TGA are set forth in Example 23.
TG analysis was performed using a Mettler-Toledo TGA/DSC3 analyzer. Temperature and enthalpy adjustments were performed using indium, tin, and zinc, and then verified with indium. The balance was verified with calcium oxalate. The sample was placed in an open aluminum pan. The pan was hermetically sealed, the lid pierced, then inserted into the TG furnace. A weighed aluminum pan configured as the sample pan was placed on the reference platform. The furnace was heated under nitrogen. Each sample was heated from ambient temperature to 350° C. at 10° C./min. Although thermograms are plotted by reference temperature (x-axis), results are reported according to sample temperatures.

[5] = Solid-state chemical stability of 25HC3S salts at 2-8° C., 60° C. and 80° C. (HPLC assay and degradation products); conditions: for % Impurities, Total / % Impurities, 25-HC: ND = Not Detected; for % Impurities, 25-HC: 25-Hydroxy-Cholesterol; for % Recovery: vs 2-8° C.; for Stability after 1 week at 60° C. (in words) / Stability after 3 weeks at 80° C. (in words): solid state; for Stability after 1 week at 60° C. (in words): 1 week (after 3 weeks at 2-8° C.)
Method: as §1, §2
Based on the molecular weights, and expected UV response factors of each salt used in this study, the expected analytical sample concentrations were within the range of the 25HC3S sodium reference standards (0.75 mg/mL to 1.25 mg/mL as 25HC3S sodium salt). However, due to the lower-than-expected purity of the 25HC3S benzathine salt, an additional standard was prepared at 0.125 mg/mL as 25HC3S sodium salt.
Samples were prepared by pipetting 20 mL of 100% methanol into each vial and mixing well, with sonication and vortexing to fully dissolve the samples for HPLC analysis.
Samples were prepared by pipetting 20 mL of 100% methanol into each vial followed by two rounds of sonication for 30 minutes, with 30 seconds of vortexing before and after each round. Sample aliquots were then centrifuged at 10,000 RPM for 10 minutes and the supernatant collected for HPLC analysis.
Samples were prepared by pipetting 20 mL of 100% methanol into each vial, followed by 5 seconds of vortexing. The undissolved powder in methanol was quantitatively transferred into 200 mL volumetric flasks. The sample vials were rinsed 3 times with methanol, with each rinsate transferred to the 200 mL volumetric flasks. The volumetric flasks were filled to about 90% volume and sonicated for 10 minutes to fully dissolve the powder. The flasks were filled to volume with methanol, mixed well and aliquots collected for HPLC analysis.
HPLC analysis was performed.

[6] = listed as 25HC3S hydroxyethylammonium
[7] = 2-8° C., 3 wk, listed as 25HC3S hydroxyethylammonium
[8] = 80° C., 3 wk, listed as 25HC3S hydroxyethylammonium
[9] = 60° C., 1 wk, listed as 25HC3S hydroxyethylammonium
[10] = listed as 25HC3S hydroxyethylpyrrolidinium
[11] = 2-8° C., 3 wk, listed as 25HC3S hydroxyethylpyrrolidinium
[12] = 80° C., 3 wk, listed as 25HC3S hydroxyethylpyrrolidinium
[13] = 60° C., 1 wk, listed as 25HC3S hydroxyethylpyrrolidinium

CC(CCCC(C)(C)O)C1CCC2C3CC=C4CC(OS(=O)(=O)O)CCC4(C)C3CCC12C (stereo not shown) [Salt #5]
pH of the solubility sample, 0.9% Sodium Chloride [1, 6]: 8.2
pH of the solubility sample, 5% Dextrose [1, 6]: 7.0
pH of the solubility sample, FaSSGF [1]: 1.6
pH of the solubility sample, FaSSIF [1]: 6.6
pH of the solubility sample, FeSSIF [1]: 5.0
pH of the solubility sample, Water [1, 6]: 8.6
Angle of Repose [2, 6]: 24.8 degrees
Angle of Repose, Rounded Whole Number [2, 6]: 25 degrees
Appearance [3, 7]: White, free flowing powder, no clumping
Appearance ([3]; 60° C., 1 wk (after 3 weeks at 2-8° C.), listed as 25HC3S hydroxyethylammonium): Light brown, partially melted material
Appearance after 3 weeks at 80° C. ([3]; 80° C.): completely burned
Appearance [3, 8]: Dark brown, partially melted material
Weight loss by TGA, ambient to 134° C. ([4]; ambient to 134° C.): about 2.7%
Assay ([5]; 2-8° C., 3 wk, 30240 min, listed as 25HC3S hydroxyethylammonium): 91.9 % w/w
% Impurities, Total [5, 7]: 3.1%
Overall physical and chemical stability (in words) ([5]; 2-8° C., 60° C., 80° C.): least stable organic salt; also recorded: least physically and chemically stable
% Impurities, 25-HC [5, 7]: 1.2%
% Impurities, 25-HC [5, 9]: 11.3%
Physical and chemical solid-state stability (comments) ([5]; 60° C., 1 week, listed as 25HC3S Hydroxyethylammonium): Totally decomposed after 1 week at 60 °C and after 3 weeks at 80 °C
Assay ([5]; 60° C., 1 wk (after 3 weeks at 2-8° C.), 10080 min, listed as 25HC3S hydroxyethylammonium, 10080 min): 0.0 % w/w
% Recovery of 2-8° C./3 wk vs 60° C./1 wk ([5]; 60° C., 1 wk, 10080 min, listed as 25HC3S hydroxyethylammonium): 0.0%
% Impurities, Total [5, 9]: 99.7%
Physical and chemical solid-state stability (comments) ([5]; 80° C., 3 weeks, listed as 25HC3S Hydroxyethylammonium): Totally decomposed after 1 week at 60 °C and after 3 weeks at 80 °C
% Recovery ([5]; 80° C., 3 wk, 30240 min, listed as 25HC3S hydroxyethylammonium, 30240 min): 0.0%
Assay ([5]; 80° C., 3 wk, 30240 min, listed as 25HC3S hydroxyethylammonium): 0.0 % w/w
% Impurities, Total [5, 8]: 100.1%
Stability after 1 week at 60° C. (in words) ([5]; 60° C.): totally decomposed
Stability after 3 weeks at 80° C. (in words) ([5]; 80° C., 3 weeks): totally decomposed

CC(CCCC(C)(C)O)C1CCC2C3CC=C4CC(OS(=O)(=O)O)CCC4(C)C3CCC12C (stereo not shown) [Salt #6]
pH of the solubility sample, 0.9% Sodium Chloride [1, 10]: 8.3
pH of the solubility sample, 5% Dextrose [1, 10]: 6.4
pH of solubility sample solution in 5% dextrose ([1]; 5% dextrose (medium pH 4.7)): 6.4
pH of the solubility sample, FaSSGF [1]: 1.6
pH of the solubility sample, FaSSIF [1, 10]: 6.5
pH of the solubility sample, FeSSIF [1, 10]: 4.9
pH of the solubility sample, Water [1, 10]: 8.2
Flow Property per USP<1174> Powder Flow ([2]; classification by angle of repose, listed as 25HC3S hydroxyethylpyrrolidinium): Poor - must agitate,
Angle of Repose [2, 10]: 53.8 degrees
Angle of Repose, Rounded Whole Number [2, 10]: 54 degrees
Appearance [3, 11]: White, free flowing powder with clumping
Appearance ([3]; 60° C., 1 wk (after 3 weeks at 2-8° C.), listed as 25HC3S hydroxyethylpyrrolidinium): White, free flowing powder with clumping
Appearance after 3 weeks at 80° C. ([3]; 80° C.): completely burned
Appearance [3, 12]: Dark brown, melted material stuck to
Weight loss by TGA up to 181° C. ([4]; up to 181° C.): about 0.1%
Assay ([5]; 2-8° C., 3 wk, 30240 min, listed as 25HC3S hydroxyethylpyrrolidinium): 100.5 % w/w
% Impurities, Total [5, 11]: 2.0%
% Impurities, 25-HC [5, 11]: 0.3%
% Impurities, 25-HC [5, 13]: 0.4%
% Impurities, 25-HC [5, 12]: 0.3%
Physical and chemical solid-state stability (comments) ([5]; 60° C., 1 week, listed as 25HC3S Hydroxyethylpyrrolidinium): Stable after 1 week at 60 °C
Assay ([5]; 60° C., 1 wk (after 3 weeks at 2-8° C.), 10080 min, listed as 25HC3S hydroxyethylpyrrolidinium, 10080 min): 104.9 % w/w
% Recovery of 2-8° C./3 wk vs 60° C./1 wk ([5]; 60° C., 1 wk, 10080 min, listed as 25HC3S hydroxyethylpyrrolidinium): 104.4%
% Impurities, Total [5, 13]: 1.8%
Physical and chemical solid-state stability (comments) ([5]; 80° C., 3 weeks, listed as 25HC3S Hydroxyethylpyrrolidinium): totally decomposed after 3
% Recovery ([5]; 80° C., 3 wk, 30240 min, listed as 25HC3S hydroxyethylpyrrolidinium, 30240 min): 0.0%
Assay ([5]; 80° C., 3 wk, 30240 min, listed as 25HC3S hydroxyethylpyrrolidinium): 0.0 % w/w
% Impurities, Total [5, 12]: 99.9%
Stability after 1 week at 60° C. (in words) ([5]; 60° C.): stable
Stability after 3 weeks at 80° C. (in words) ([5]; 80° C., 3 weeks): totally decomposed
